Consider 37 compounds from the RepoRT retention time repository.

The data set is described as follows: HILIC, Waters Atlantis Premier BEH Z-HILIC, 100 × 2.1 mm, 1.7 µm, 40 °C, 0.15 mL/min, estimated dead time 1.5 min; A: water + 20 mM ammonium carbonate + 5 µM medronic acid; B: 10% water + 90% acetonitrile + 2 mM ammonium carbonate + 0.5 µM medronic acid; gradient (min/%B) 0/90 18/55 18.1/20 21.5/20 22/90 23.5/90 25.5/90. The following applies: stereoisomer not certain.

In the case of `CCC(=O)OC(CC(=O)[O-])C[N+](C)(C)C` (configuration not stated) [carnitine-C3], the LC retention time was 6.42 min.

Consider `Nc1ncnc2c1ncn2C1OC(CO)C(O)C1O` (configuration not stated) [Adenosine], for which the LC retention time was 3.18 min.

On to `Nc1ncnc2c1ncn2C1OC(COP(=O)(O)O)C(O)C1O` (configuration not stated) [AMP], for which the LC retention time is 9.07 min.

For the compound `CC(C)CC(N)C(=O)O` (configuration not stated) [Leucine], the LC retention time is 6.22 min.

Take `O=C1CC(C(=O)O)NC(=O)N1` (configuration not stated) [dihydroorotic acid]: the LC retention time was 3.92 min.

Take `OCC1OC(O)C(O)C(O)C1O` (configuration not stated) [Hexose]: the LC retention time is 7.41 min.

For the compound `O=C(O)CC(O)(CC(=O)O)C(=O)O` [Citric acid], the LC retention time is 12.8 min.

With `NC(=O)c1ccc[n+](C2OC(COP(=O)(O)OP(=O)(O)OCC3OC(n4cnc5c(N)ncnc54)C(OP(=O)(O)O)C3O)C(O)C2O)c1` (configuration not stated) [NADP], the LC retention time was 13.1 min.

With `O=C(O)C(CO)OP(=O)(O)O` (configuration not stated) [Phosphoglyceric acid A], the LC retention time was 12.7 min.

As to `C=C(OP(=O)(O)O)C(=O)O` [PEP], the LC retention time is 12.9 min.

As for `NC(N)=NCCCC(N)C(=O)O` (configuration not stated) [Arginine], the LC retention time was 18.4 min.

Turning to `Cc1cc2nc3c(=O)[nH]c(=O)nc-3n(CC(O)C(O)C(O)COP(=O)(O)OP(=O)(O)OCC3OC(n4cnc5c(N)ncnc54)C(O)C3O)c2cc1C` (configuration not stated) [FAD], the LC retention time is 7.03 min.

As to `O=C(CO)C(O)C(O)C(O)COP(=O)(O)O` (configuration not stated) [Fructose 6-phosphate], the LC retention time is 10.8 min.

On to `NCCCCC(N)C(=O)O` (configuration not stated) [Lysine], for which the LC retention time is 18.6 min.

Consider `O=C(O)CCC(O)C(=O)O` (configuration not stated) [2-hydroxy glutaric acid], for which the LC retention time was 9.22 min.

Regarding `CC(C)(COP(=O)(O)OP(=O)(O)OCC1OC(n2cnc3c(N)ncnc32)C(O)C1OP(=O)(O)O)C(O)C(=O)NCCC(=O)NCCS` (configuration not stated) [CoenzymeA], the LC retention time was 11.8 min.

In the case of `O=P(O)(O)OCC1OC(O)(COP(=O)(O)O)C(O)C1O` (configuration not stated) [Fructose-1,6-bisphosphate], the LC retention time was 14.8 min.

With `O=C(O)CC(C(=O)O)C(O)C(=O)O` (configuration not stated) [Isocitric acid], the LC retention time is 12.8 min.

In the case of `CC(O)C(=O)O` (configuration not stated) [Lactic Acid], the LC retention time is 3.15 min.

`O=C(O)CCC(=O)C(=O)O` [2-Oxoglutaric acid]: the LC retention time is 8.68 min.

As to `O=C(O)CCCCC1SCC2NC(=O)NC21` (configuration not stated) [Biotin], the LC retention time was 4.58 min.

With `Nc1ncnc2c1ncn2C1OC(COP(=O)(O)OP(=O)(O)O)C(O)C1O` (configuration not stated) [ADP], the LC retention time was 11.1 min.

For the compound `O=P(O)(O)OCC(O)CO` (configuration not stated) [Glycerol-3-phosphate], the LC retention time was 9.92 min.

For `CCC(C)C(N)C(=O)O` (configuration not stated) [Isoleucine], the LC retention time is 6.5 min.

For `NC(=O)C1=CN(C2OC(COP(=O)(O)OP(=O)(O)OCC3OC(n4cnc5c(N)ncnc54)C(OP(=O)(O)O)C3O)C(O)C2O)C=CC1` (configuration not stated) [NADPH], the LC retention time was 13.3 min.

Take `O=P(O)(O)OCC1OC(O)C(O)C(O)C1O` (configuration not stated) [Glucose-6-phosphate]: the LC retention time was 11.7 min.

Take `O=C(O)CCC(=O)O` [Succinic Acid]: the LC retention time was 9.23 min.

For the compound `NC(=O)c1ccc[n+](C2OC(COP(=O)(O)OP(=O)(O)OCC3OC(n4cnc5c(N)ncnc54)C(O)C3O)C(O)C2O)c1` (configuration not stated) [NAD], the LC retention time is 9.49 min.

On to `CC(=O)NC1C(OP(=O)(O)OP(=O)(O)OCC2OC(n3ccc(=O)[nH]c3=O)C(O)C2O)OC(CO)C(O)C1O` (configuration not stated) [UDP-GlcNAc], for which the LC retention time is 9.52 min.

In the case of `NC(=O)C1=CN(C2OC(COP(=O)(O)OP(=O)(O)OCC3OC(n4cnc5c(N)ncnc54)C(O)C3O)C(O)C2O)C=CC1` (configuration not stated) [NADH], the LC retention time is 8.31 min.

For the compound `O=C(CO)COP(=O)(O)O` [Triose phosphate], the LC retention time is 9.78 min.

Take `CC(=O)SCCNC(=O)CCNC(=O)C(O)C(C)(C)COP(=O)(O)OP(=O)(O)OCC1OC(n2cnc3c(N)ncnc32)C(O)C1OP(=O)(O)O` (configuration not stated) [Acetyl-CoA]: the LC retention time is 10.1 min.

With `Nc1ncnc2c1ncn2C1OC(COP(=O)(O)OP(=O)(O)OP(=O)(O)O)C(O)C1O` (configuration not stated) [ATP], the LC retention time was 12.9 min.

Consider `C[N+](C)(C)CC(O)CC(=O)[O-]` (configuration not stated) [Carnitine], for which the LC retention time was 9.89 min.

Consider `NC(=O)CCC(N)C(=O)O` (configuration not stated) [Glutamine], for which the LC retention time is 10.3 min.

With `Nc1nc2c(ncn2C2OC(COP(=O)(O)OP(=O)(O)OP(=O)(O)O)C(O)C2O)c(=O)[nH]1` (configuration not stated) [GTP], the LC retention time is 15.3 min.

On to `NC(CCC(=O)O)C(=O)O` (configuration not stated) [Glutamic acid], for which the LC retention time was 9.23 min.
